Measured values taken from PMC11673932, “A Novel Ginsenoside-Transforming α-L-Rhamnosidase from Bifidobacterium: Screening, Characterization and Application” (Biomolecules, 2024).

Legend:
BD890 (Bd890, BdRham) = target: T1, BD890 (Bd890, BdRham) (Bifidobacterium dentium, UniProt D2Q797); test: conversion of Re to Rg1 in PPT-type ginsenoside mixture; format: biochemical; conditions: cell lysate, 45 °C, Re 2.25 mg/mL in ginsenoside mixture
T1 construct: gene BDP_0161; GST-tag vector pBT7 (same expression system as C118), E. coli BL21(DE3), used as cell lysate; GH78
T1 sequence (D2Q797 1-890): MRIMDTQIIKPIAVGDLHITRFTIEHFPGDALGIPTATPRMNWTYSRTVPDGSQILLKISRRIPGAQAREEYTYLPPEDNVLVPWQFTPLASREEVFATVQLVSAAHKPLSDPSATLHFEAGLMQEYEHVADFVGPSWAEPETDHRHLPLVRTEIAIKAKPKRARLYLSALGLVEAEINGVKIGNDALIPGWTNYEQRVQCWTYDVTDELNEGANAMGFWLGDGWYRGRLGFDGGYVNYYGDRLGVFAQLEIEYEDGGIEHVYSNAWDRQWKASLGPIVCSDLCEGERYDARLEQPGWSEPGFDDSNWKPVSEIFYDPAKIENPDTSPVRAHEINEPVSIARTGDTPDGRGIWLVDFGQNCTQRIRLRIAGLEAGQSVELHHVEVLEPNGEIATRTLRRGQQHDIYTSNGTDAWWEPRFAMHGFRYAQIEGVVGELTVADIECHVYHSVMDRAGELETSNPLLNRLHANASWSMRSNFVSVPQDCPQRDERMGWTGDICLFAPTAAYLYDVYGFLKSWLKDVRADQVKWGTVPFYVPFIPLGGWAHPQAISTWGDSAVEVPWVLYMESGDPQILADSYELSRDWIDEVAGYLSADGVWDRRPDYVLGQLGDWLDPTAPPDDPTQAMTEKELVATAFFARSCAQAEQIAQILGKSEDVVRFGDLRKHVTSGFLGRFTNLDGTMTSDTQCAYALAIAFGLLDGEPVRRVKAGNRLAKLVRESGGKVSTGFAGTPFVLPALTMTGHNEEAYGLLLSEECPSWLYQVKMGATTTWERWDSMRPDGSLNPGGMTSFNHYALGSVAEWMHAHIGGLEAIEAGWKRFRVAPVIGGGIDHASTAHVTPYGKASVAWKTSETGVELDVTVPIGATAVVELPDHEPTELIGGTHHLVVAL

[1] = tested on: T2, C118 (GST-C118), alpha-L-rhamnosidase; test: product (Rg1) quantified, Michaelis-Menten fit; format: biochemical, Bifidobacterium sp.; conditions: pH 6.0, 45 °C; Re 0.25-10.0 mg/mL; enzyme 0.62 mg/mL
T2 construct: E. coli BL21(DE3); GH78 subfamily II; EC 3.2.1.40; predicted catalytic residues Glu478, Asp472, also W541, W600, L597, W532
Source text: product (Rg1) quantified, Michaelis-Menten fit on C118 (GST-C118), alpha-L-rhamnosidase

[2] = tested on: T2, C118 (GST-C118), alpha-L-rhamnosidase; test: p-nitrophenol release, Michaelis-Menten fit; format: biochemical, Bifidobacterium sp.; conditions: pH 6.0, 45 °C; pNPR 0.1-5.0 mM; enzyme 0.62 mg/mL
Source text: p-nitrophenol release, Michaelis-Menten fit on C118 (GST-C118), alpha-L-rhamnosidase

Row | Km [2] [µM] | Compound | % conversion after 12 h (BD890 (Bd890, BdRham)) [%] | Km [1] [µM]
1 | – | CC(C)=CCC[C@](C)(O[C@@H]1O[C@H](CO)[C@@H](O)[C@H](O)[C@H]1O)[C@H]1CC[C@]2(C)[C@@H]1[C@H](O)C[C@@H]1[C@@]3(C)CC[C@H](O)C(C)(C)[C@@H]3[C@@H](O[C@@H]3O[C@H](CO)[C@@H](O)[C@H](O)[C@H]3O[C@@H]3O[C@@H](C)[C@H](O)[C@@H](O)[C@H]3O)C[C@]12C [Ginsenoside Re] | 54 | 544
2 | 2030 | C[C@@H]1O[C@@H](Oc2ccc([N+](=O)[O-])cc2)[C@H](O)[C@H](O)[C@H]1O [p-nitrophenyl-α-L-rhamnopyranoside] | – | –
